Experimental data: patent EP0162545A2, “Enhanced bioconversion processes” (BETZ EUROPE, INC., priority 1984, dated 1985)

Assays:
Klebsiella [1] = assay: microbe, parasite or virus in culture; format: cell-based
Method: These patterns were the results of Klebsiella cultures having been grown on glucose (^14C-label). In nature, and in waste treatment facilities, many organic carbon compounds, both simple and complex, would be available for degradation. The known uncouplers and BNS were tested for their ability to increase C02 evolution from cultures exposed to the common substrates lactate, glycine, glycerol, and a denatured protein mixture. […] This was expected in the case of glycine but it was thought that a more complex protein might be degraded and portions used for some energyproduction. It was hoped that these compounds might be a more representative group (more abundant in waste treatment) than simple sugars for determining the extent of activity of BNS. […] Lactate, a common intermediate in microbial metabolism, and a compound which would normally be used as an oxidizable substrate for running the cytochrome chain, gave a more representative response. BNS treated cultures gave increased C02 blowoff (an increase as high as 130% at 5 µg/mL) as did both known uncouplers. […] When glycerol was used as the labeled substrate, BNS treated cultures gave increased C02 at concentrations up to 5 µg/mL.
The procedure used for determining the CO2 evolution was similar to the procedure described previously. Cells having been grown overnight in MSM and glucose were centrifuged and resuspended in MSM + glucose (cold) and used as inoculum. No other cold carbon source (unlabeled) was added. ^14C-labeled substrates (lactate, glycerol, etc.) obtained from New England Nuclear were used and supplied the radiolabeled carbon for the detection of ^14CO2. BNS was utilized in concentrations of 0.5 - 10 µg/mL. Fixed concentrations of 5 µg/mL CCCP and DNP were included for comparative purposes. The following data were obtained in these experiments.

Klebsiella [2] = assay: CO2 evolution from 14C-D-glucose, second series; format: cell-based; set-up: Cumulative Growth Index Reading (CO2 Blowoff) 0 HR: scale not given here
Method: Experiments to look at the above conclusions in depth were performed. In these experiments, cultures of Klebsiella were challenged with various concentrations of BNS and the effects on C02 evolution from glucose, viability, TOC (Total Organic Carbon), TIC (Total Inorganic Carbon) production, removal, and DO (Dissolved Oxygen) removal were determined. Concentrations of BNS from 0.05 to 100 µg/mL were used. […] CO2 evolution decreased after 5 gg/mL. […] The viability dropped off after that with 99% inhibition at concentrations somewhere between 10 - 20 µg/mL. Organic carbon removal gave the most puzzling pattern. […] CO2 was produced, however, as reflected by the C02 blowoff experiments and the TIC data. The organic carbon being oxidized (removed) must have been cancelled out by an organic carbon addition caused by limited bacterial lysis. This phenomenon was investigated again. […] It appeared that 5 ppm BNS would be the maximum concentration that could be used for the desired effect, with the majority of favorable results occurring in the 0.05 - 2 ppm range.
The experiments coordinating the measurements of C02 evolution, TOC reduction, viable count, and dissolved oxygen (DO) reduction were performed as follows: C02 evolution by Klebsiella was measured as described previously using a narrowed set of BNS concentrations. At the same time, Klebsiella cells grown overnight in nutrient broth were standardized into an inoculum of 250 Klett units. These cells were used to inoculate 19 mL quantities of fresh nutrient broth (1 mL inoculum) in baffled shake flasks. These shake flasks were placed into water bath shakers at 37°C and allowed to shake for 5 hours. Concentrations of BNS equivalent to the C02 blowoff experiment were added to the flasks at the beginning of the experiment. Controls containing no BNS were included for comparisons. Total organic carbon measurements were taken after 5 hours incubation. Viable counts were done at 1 hour, 3 hours, and 5 hours. A parallel experiment was performed using the same setup except that after BNS additions, the flasks were shaken for 30 minutes and then held stationary. DO measurements were taken at 5 hours incubation with the use of a YSI Model 54A oxygen meter.

[3] = BNS breakdown kinetics in deionized water, spectrophotometric at 320 nm; format: physicochemical
Method: BNS stock was composed of 10% BNS, 5% Triton X-114 and 85% carbitol acetate. BNS was diluted in deionized water to the appropriate 10X concentration desired. Breakdown kinetics were measured in a deionized H20/BNS system by spectrophotometric measurement at 320 nm and a BNS half life was determined to be 7 hours. Continuous and separate pumping of uncoupler was by a Masterflex 7552-10 peristalic pump (Cole Parmer, Chicago, IL) through silicon tubing lines into the bioreactor. Feed flow was split 90% organic feed, 10% BNS feed for total flow. New uncoupler feed was made up daily from the previously mentioned stock, since there was only 10% of the original BNS concentration left before the new daily solution of BNS feed was begun. BNS dose of 1, 2 and 5 ppm was based on the total bulk feed. Reservoir solutions were mixed constantly on a Fisher versamix magnetic stir plate at a speed of 0.4/1.0 to prevent settling out of chemical.

With `O=[N+]([O-])C(Br)=Cc1ccccc1` [BNS, beta-bromo-beta-nitrostyrene] the activation at 5 µg/mL (Klebsiella [1]; Klebsiella, 14C-lactate as labeled substrate, 5 µg/mL, read-out: increase in C02 blowoff) was 130%, the “concentrations giving increased C02” value (Klebsiella [1]; glycerol as the labeled substrate) was “up to 5 µg/mL” and the “effect on CO2 evolution” value (Klebsiella [1]; glycine as the labeled substrate) was “either no effect or a toxic effect”. The “Cumulative Growth Index Reading (CO2 Blowoff) 0 HR” value (Klebsiella [2]; BNS 0.05 μg/mL) was 2, the “Cumulative Growth Index Reading (CO2 Blowoff) 0.5 HR” value (Klebsiella [2]; BNS 0.05 μg/mL) was 762 and the “Cumulative Growth Index Reading (CO2 Blowoff) 1 HR” value (Klebsiella [2]; BNS 0.05 μg/mL) was 1,082. For the same molecule, the “Cumulative Growth Index Reading (CO2 Blowoff) 3 HR” value (Klebsiella [2]; BNS 0.05 μg/mL) was 1,642, the “Cumulative Growth Index Reading (CO2 Blowoff) 5 HR” value (Klebsiella [2]; BNS 0.05 μg/mL) was 2,012 and the “Cumulative Growth Index Reading (CO2 Blowoff) 0 HR” value (Klebsiella [2]; BNS 0.1 μg/mL) was 2. For the same molecule, the “Cumulative Growth Index Reading (CO2 Blowoff) 0.5 HR” value (Klebsiella [2]; BNS 0.1 μg/mL) was 877, the “Cumulative Growth Index Reading (CO2 Blowoff) 1 HR” value (Klebsiella [2]; BNS 0.1 μg/mL) was 1,197 and the “Cumulative Growth Index Reading (CO2 Blowoff) 3 HR” value (Klebsiella [2]; BNS 0.1 μg/mL) was 1,797. For the same molecule, the “Cumulative Growth Index Reading (CO2 Blowoff) 5 HR” value (Klebsiella [2]; BNS 0.1 μg/mL) was 2,197, the “Cumulative Growth Index Reading (CO2 Blowoff) 0 HR” value (Klebsiella [2]; BNS 0.5 μg/mL) was 1 and the “Cumulative Growth Index Reading (CO2 Blowoff) 0.5 HR” value (Klebsiella [2]; BNS 0.5 μg/mL) was 801. The “Cumulative Growth Index Reading (CO2 Blowoff) 1 HR” value (Klebsiella [2]; BNS 0.5 μg/mL) was 1,121, the “Cumulative Growth Index Reading (CO2 Blowoff) 3 HR” value (Klebsiella [2]; BNS 0.5 μg/mL) was 1,761 and the “Cumulative Growth Index Reading (CO2 Blowoff) 5 HR” value (Klebsiella [2]; BNS 0.5 μg/mL) was 2,201. The “Cumulative Growth Index Reading (CO2 Blowoff) 0 HR” value (Klebsiella [2]; BNS 1.0 μg/mL) was 1, the “Cumulative Growth Index Reading (CO2 Blowoff) 0.5 HR” value (Klebsiella [2]; BNS 1.0 μg/mL) was 761 and the “Cumulative Growth Index Reading (CO2 Blowoff) 1 HR” value (Klebsiella [2]; BNS 1.0 μg/mL) was 1,091. The “Cumulative Growth Index Reading (CO2 Blowoff) 3 HR” value (Klebsiella [2]; BNS 1.0 μg/mL) was 1,741, the “Cumulative Growth Index Reading (CO2 Blowoff) 5 HR” value (Klebsiella [2]; BNS 1.0 μg/mL) was 2,201 and the “Cumulative Growth Index Reading (CO2 Blowoff) 0 HR” value (Klebsiella [2]; BNS 2 μg/mL) was 2. The “Cumulative Growth Index Reading (CO2 Blowoff) 0.5 HR” value (Klebsiella [2]; BNS 2 μg/mL) was 752, the “Cumulative Growth Index Reading (CO2 Blowoff) 1 HR” value (Klebsiella [2]; BNS 2 μg/mL) was 1,072 and the “Cumulative Growth Index Reading (CO2 Blowoff) 3 HR” value (Klebsiella [2]; BNS 2 μg/mL) was 1,732. The “Cumulative Growth Index Reading (CO2 Blowoff) 5 HR” value (Klebsiella [2]; BNS 2 μg/mL) was 2,212, the “Cumulative Growth Index Reading (CO2 Blowoff) 0 HR” value (Klebsiella [2]; BNS 5 μg/mL) was 0 and the “Cumulative Growth Index Reading (CO2 Blowoff) 0.5 HR” value (Klebsiella [2]; BNS 5 μg/mL) was 750. For the same molecule, the “Cumulative Growth Index Reading (CO2 Blowoff) 1 HR” value (Klebsiella [2]; BNS 5 μg/mL) was 1,032, the “Cumulative Growth Index Reading (CO2 Blowoff) 3 HR” value (Klebsiella [2]; BNS 5 μg/mL) was 1,570 and the “Cumulative Growth Index Reading (CO2 Blowoff) 5 HR” value (Klebsiella [2]; BNS 5 μg/mL) was 1,980. For the same molecule, the “Cumulative Growth Index Reading (CO2 Blowoff) 0 HR” value (Klebsiella [2]; BNS 10 μg/mL) was 2, the “Cumulative Growth Index Reading (CO2 Blowoff) 0.5 HR” value (Klebsiella [2]; BNS 10 μg/mL) was 682 and the “Cumulative Growth Index Reading (CO2 Blowoff) 1 HR” value (Klebsiella [2]; BNS 10 μg/mL) was 952. For the same molecule, the “Cumulative Growth Index Reading (CO2 Blowoff) 3 HR” value (Klebsiella [2]; BNS 10 μg/mL) was 1,392, the “Cumulative Growth Index Reading (CO2 Blowoff) 5 HR” value (Klebsiella [2]; BNS 10 μg/mL) was 1,662 and the “Cumulative Growth Index Reading (CO2 Blowoff) 0 HR” value (Klebsiella [2]; BNS 20 μg/mL) was 1. For the same molecule, the “Cumulative Growth Index Reading (CO2 Blowoff) 0.5 HR” value (Klebsiella [2]; BNS 20 μg/mL) was 451, the “Cumulative Growth Index Reading (CO2 Blowoff) 1 HR” value (Klebsiella [2]; BNS 20 μg/mL) was 616 and the “Cumulative Growth Index Reading (CO2 Blowoff) 3 HR” value (Klebsiella [2]; BNS 20 μg/mL) was 916. The “Cumulative Growth Index Reading (CO2 Blowoff) 5 HR” value (Klebsiella [2]; BNS 20 μg/mL) was 1,101, the “Cumulative Growth Index Reading (CO2 Blowoff) 0 HR” value (Klebsiella [2]; BNS 50 μg/mL) was 1 and the “Cumulative Growth Index Reading (CO2 Blowoff) 0.5 HR” value (Klebsiella [2]; BNS 50 μg/mL) was 271. The “Cumulative Growth Index Reading (CO2 Blowoff) 1 HR” value (Klebsiella [2]; BNS 50 μg/mL) was 381, the “Cumulative Growth Index Reading (CO2 Blowoff) 3 HR” value (Klebsiella [2]; BNS 50 μg/mL) was 651 and the “Cumulative Growth Index Reading (CO2 Blowoff) 5 HR” value (Klebsiella [2]; BNS 50 μg/mL) was 876. The “Cumulative Growth Index Reading (CO2 Blowoff) 0 HR” value (Klebsiella [2]; BNS 100 μg/mL) was 2, the “Cumulative Growth Index Reading (CO2 Blowoff) 0.5 HR” value (Klebsiella [2]; BNS 100 μg/mL) was 97 and the “Cumulative Growth Index Reading (CO2 Blowoff) 1 HR” value (Klebsiella [2]; BNS 100 μg/mL) was 202. For the same molecule, the “Cumulative Growth Index Reading (CO2 Blowoff) 3 HR” value (Klebsiella [2]; BNS 100 μg/mL) was 287, the “Cumulative Growth Index Reading (CO2 Blowoff) 5 HR” value (Klebsiella [2]; BNS 100 μg/mL) was 365 and the half-life ([3]; deionized water, deionized H20/BNS system, 320 nm) was 7 h. For the same molecule, the “original BNS concentration left” value ([3]; diluted feed in deionized water, before the new daily solution) was 10%.
